From patent US8809342B2, “Glucagon receptor modulators” (Pfizer Inc., priority 2010, dated 2014)

Target: T1, human glucagon receptor (Homo sapiens, UniProt P47871)
T1 construct: expressed in transfected cells; host or cells: CHO-K1 cells, stably transfected
Experiment: Glucagon cAMP assay (Cisbio cAMP detection)
Format: cell-based
Description: The Cisbio cAMP detection assay is used to determine the ability of punitive glucagon antagonist to block glucagon induced cAMP production. Potential glucagon antagonists are re-suspended and diluted in 100% DMSO. Prior to use in the Glucagon cAMP assay 100×DMSO compound stocks are diluted 20× with DMEM-F12 media (Invitrogen) containing either 0.1% or 4% BSA. 2 uls of 5× compound stocks are spotted into the appropriate wells of low binding white solid bottom 384 well plates (Corning). 2 uls of 5% DMSO or known glucagon antagonist are added to each plate to define the assay window. CHOK1 cells stably transfected with the human glucagon receptor are removed from culture flasks with cell dissociation buffer. Cell pellets are re-suspended, at a concentration of 8.3e^5 cells/ml in DMEM-F12 with or without 4% BSA and 200 uM IBMX. 6 uls of cell suspensions are added to the assay plates. Plates are incubated for 20 min at room temperature prior to the addition of a 100 pM challenge dose of glucagon. On a separate plate glucagon dose response curves are run to determine the EC50 of glucagon. After a 30 min room temperature incubation the reaction is terminated by the addition of lysis buffer containing the cAMP detection reagents. Plates are incubated for an additional 60 min at room temperature prior to being read on the Perkin Elmer fluorescent plate reader. Raw is converted to nM of cAMP produced based on a cAMP standard curve. Converted data is then analyzed using the Pfizer data analysis program. IC50 values are determined from the generated sigmoidal dose response curves. Kb values are the calculated using a modified Cheng-Prusoff equation.

T1 sequence (P47871 26-477): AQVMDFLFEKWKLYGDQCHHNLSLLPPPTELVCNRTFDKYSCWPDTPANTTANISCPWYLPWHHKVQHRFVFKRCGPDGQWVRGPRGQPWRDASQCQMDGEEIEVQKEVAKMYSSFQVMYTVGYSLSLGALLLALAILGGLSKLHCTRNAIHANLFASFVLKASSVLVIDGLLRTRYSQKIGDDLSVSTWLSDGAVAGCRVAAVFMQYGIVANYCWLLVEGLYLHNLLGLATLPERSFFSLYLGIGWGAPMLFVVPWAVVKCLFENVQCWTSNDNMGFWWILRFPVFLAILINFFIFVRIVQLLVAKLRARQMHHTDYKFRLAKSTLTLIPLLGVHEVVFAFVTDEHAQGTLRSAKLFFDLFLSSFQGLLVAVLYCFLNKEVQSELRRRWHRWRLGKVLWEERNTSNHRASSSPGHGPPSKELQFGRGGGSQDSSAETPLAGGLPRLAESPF

| Kb [nM] | Compound |
| --- | --- |
| 140 | CC(C)CC(Nc1ccc(C(=O)NCCC(=O)O)cn1)c1ccc(-c2ccc(C(F)(F)F)cc2)cc1 (racemic) [Example 1.2, (+/−)-3-(6-(3-methyl-1-(4′-(trifluoromethyl)biphenyl-4-yl)butylamino)nicotinamido)propanoic acid] |
| 730 | CC(C)CC(Nc1ccc(-c2ccc(C(F)(F)F)cc2)cc1)c1ccc(C(=O)NCc2nnn[nH]2)cn1 (racemic) [Example 2.12, (+/−)-N-((1H-tetrazol-5-yl)methyl)-6-(3-methyl-1-(4′-(trifluoromethyl)biphenyl-4-ylamino)butyl)nicotinamide] |
| 150 | CCC(Nc1ccc(C(=O)NCCC(=O)O)cn1)c1ccc(-c2ccc(C(F)(F)F)cc2)cc1 (single isomer, unassigned; isomer 2) [Example 1.13, 3-(6-(1-(4′-(trifluoromethyl)biphenyl-4-yl)propylamino)nicotinamido) propanoic acid, Isomer 2] |
| 110 | O=C(O)CCNC(=O)c1ccc(NC(CC2CC2)c2ccc(-c3ccc(C(F)(F)F)cc3)cc2)nc1 (stereo not drawn) [Example 4.14, 3-(6-(2-cyclopropyl-1-(4′-(trifluoromethyl)biphenyl-4-yl)ethylamino)nicotinamido)propanoic acid] |
| 450 | CC(C)CC(Nc1ccc(C(=O)NCCC(=O)O)cn1)c1ccc(-c2cccc(F)c2)cc1 (racemic) [Example 1.41, (+/−)-3-(6-(1-(3′-fluorobiphenyl-4-yl)-3-methylbutylamino)nicotinamido)propanoic acid] |
| 540 | CCCC(Nc1cnc(C(=O)NCCC(=O)O)cn1)c1ccc(-c2ccc(C(F)(F)F)cc2)cc1 (racemic) [Example 1.30, (+/−)-3-(5-(1-(4′-(trifluoromethyl)biphenyl-4-yl)butylamino)pyrazine-2-carboxamido)propanoic acid] |
| 50 | O=C(O)CCNC(=O)c1ccc(NC(c2ccc(-c3ccc(C(F)(F)F)cc3)cc2)C2CCCC2)nc1 (racemic) [Example 1.35, (+/−)-3-(6-(cyclopentyl(4′-(trifluoromethyl)biphenyl-4-yl)methylamino)nicotinamido)propanoic acid] |
| 370 | Cc1cc(C(CC(C)C)Nc2ccc(C(=O)NCCC(=O)O)cn2)cnc1-c1ccc(C(F)(F)F)cc1 (stereo not drawn) [Example 4.15, 3-(6-(3-methyl-1-(5-methyl-6-(4-(trifluoromethyl)phenyl)pyridin-3-yl)butylamino)nicotinamido)propanoic acid] |
| 170 | CCCC(Nc1ccc(C(=O)NCCC(=O)O)cn1)c1ccc(-c2ccc(C(F)(F)F)cc2)cc1 (racemic) [Example 1.7, (+/−)-3-(6-(1-(4′-(trifluoromethyl)biphenyl-4-yl)butylamino)nicotinamido)propanoic acid] |
| 180 | CC(C)C(Nc1ccc(C(=O)NCCC(=O)O)cn1)c1ccc(-c2ccc(C(F)(F)F)cc2)cc1 (racemic) [Example 1.10, (+/−)-3-(6-(2-methyl-1-(4′-(trifluoromethyl)biphenyl-4-yl)propylamino)nicotinamido)propanoic acid] |
| 1800 | CCC(Nc1cnc(-c2ccc(C(F)(F)F)cc2)c(C)c1)c1ccc(C(=O)NCCC(=O)O)cn1 (racemic) [Example 2.11, (+/−)-3-(6-(1-(5-methyl-6-(4-(trifluoromethyl)phenyl)pyridin-3-ylamino)propyl)nicotinamido)propanoic acid] |
| 990 | CC(C)C(Nc1ccc(C(=O)NCCC(=O)O)cn1)c1ccc(-c2ccc(C(F)(F)F)cc2)cc1 (single isomer, unassigned; (+)) [Example 1.14, (+)-3-(6-(2-methyl-1-(4′-(trifluoromethyl)biphenyl-4-yl)propylamino)nicotinamido)propanoic acid] |
| 180 | COc1cccc(-c2ccc(C(CC(C)C)Nc3ccc(C(=O)NCCC(=O)O)cn3)cc2)c1 (racemic) [Example 1.47, (+/−)-3-(6-(1-(3′-methoxybiphenyl-4-yl)-3-methylbutylamino)nicotinamido)propanoic acid] |
| 760 | CC(C)CC(Nc1ccc(-c2ccc(C(F)(F)F)cc2)cc1)c1ccc(C(=O)NCCC(=O)O)cn1 (single isomer, unassigned; isomer 1) [Example 2.5, 3-(6-(3-methyl-1-(4′-(trifluoromethyl)biphenyl-4-ylamino)butyl)nicotinamido)propanoic acid, Isomer 1] |
| 220 | CC(C)CC(Nc1ccc(C(=O)NCCC(=O)O)cn1)c1ccc(-c2ccccc2)cc1 (racemic) [Example 1.37] |
| 300 | CC(C)CC(Nc1ccc(C(=O)N(C)CCC(=O)O)cn1)c1ccc(-c2ccc(C(F)(F)F)cc2)cc1 (racemic) [Example 1.23, (+/−)-3-(N-methyl-6-(3-methyl-1-(4′-(trifluoromethyl)biphenyl-4-yl)butylamino)nicotinamido)propanoic acid] |
| 1600 | CC(C)CC(Nc1ccc(C(=O)NC[C@@H](O)C(=O)O)cn1)c1ccc(-c2ccc(C(F)(F)F)cc2)cc1 (mixture of isomers) [Example 1.24, (+/−)-(2R)-2-hydroxy-3-(6-(3-methyl-1-(4′-(trifluoromethyl)biphenyl-4-yl)butylamino)nicotinamido)propanoic acid] |
| 300 | CC(C)CC(Nc1ccc(-c2ccc(C(F)(F)F)cc2)cc1)c1ccc(C(=O)NCCC(=O)O)cn1 (racemic) [Example 2.4, (+/−)-3-(6-(3-methyl-1-(4′-(trifluoromethyl)biphenyl-4-ylamino)butyl)nicotinamido)propanoic acid] |
| 120 | CC(C)(C)CC(Nc1ccc(C(=O)NCCC(=O)O)cn1)c1ccc(-c2ccc(C(F)(F)F)cc2)cc1 (racemic) [Example 1.33, (+/−)-3-(6-(3,3-dimethyl-1-(4′-(trifluoromethyl)biphenyl-4-yl)butylamino)nicotinamido)propanoic acid] |
| 1700 | CC(Nc1ccc(-c2ccc(C(F)(F)F)cc2)cc1)c1ccc(C(=O)NCCC(=O)O)cn1 (racemic) [Example 2.10, (+/−)-3-(6-(1-(4′-(trifluoromethyl)biphenyl-4-ylamino)ethyl)nicotinamido)propanoic acid] |
| 280 | CC(C)CC(Nc1ccc(C(=O)NCCC(=O)O)cn1)c1ccc(-c2ccc(C(F)(F)F)nc2)cc1 (racemic) [Example 1.60, (+/−)-3-(6-(3-methyl-1-(4-(6-(trifluoromethyl)pyridin-3-yl)phenyl)butylamino)nicotinamido)propanoic acid] |
| 75 | CCCC(Nc1ccc(C(=O)NCCC(=O)O)cn1)c1ccc(-c2ccc(C(F)(F)F)cc2)c(OC)c1 (stereo not drawn) [Example 4.23, 3-(6-(1-(2-methoxy-4′-(trifluoromethyl)biphenyl-4-yl)butylamino)nicotinamido)propanoic acid] |
| 6000 | CC(Oc1ccc(-c2ccc(C(F)(F)F)cc2)cc1)c1ccc(C(=O)NCCC(=O)O)cn1 (racemic) [Example 3.3, (+/−)-3-(6-(1-(4′-(trifluoromethyl)biphenyl-4-yloxy)ethyl)nicotinamido) propanoic acid] |
| 500 | CC(C)CC(Nc1ccc(-c2ccc(C(F)(F)F)cc2)cc1)c1ccc(C(=O)NCCC(=O)O)cn1 (single isomer, unassigned; isomer 2) [Example 2.6, 3-(6-(3-methyl-1-(4′-(trifluoromethyl)biphenyl-4-ylamino)butyl)nicotinamido)propanoic acid, Isomer 2] |
| 390 | Cc1cc(C(CC(C)C)Nc2ncc(C(=O)NCCC(=O)O)cn2)ccc1-c1ccc(C(F)(F)F)cc1 (racemic) [Example 1.26, (+/−)-3-(2-(3-methyl-1-(2-methyl-4′-(trifluoromethyl)biphenyl-4-yl)butylamino)pyrimidine-5-carboxamido)propanoic acid] |
| 230 | CCc1ccc(-c2ccc(C(CC(C)C)Nc3ccc(C(=O)NCCC(=O)O)cn3)cc2)cc1 (racemic) [Example 1.54, (+/−)-3-(6-(1-(4′-ethylbiphenyl-4-yl)-3-methylbutylamino)nicotinamido)propanoic acid] |
| 560 | CCC(Nc1ccc(C(=O)NCCC(=O)O)cn1)c1ccc(-c2ccc(C(F)(F)F)cc2)cc1 (single isomer, unassigned; isomer 1) [Example 1.12, 3-(6-(1-(4′-(trifluoromethyl)biphenyl-4-yl)propylamino)nicotinamido) propanoic acid, Isomer 1] |
| 1700 | CC(C)C[C@@H](Nc1ccc(C(=O)NCCC(=O)O)cn1)c1ccc(-c2ccc(C(F)(F)F)cc2)cc1 [Example 1.1, (R)-3-(6-(3-methyl-1-(4′-(trifluoromethyl)biphenyl-4-yl)butylamino)nicotinamido)propanoic acid] |
| 160 | CC(C)CC(Nc1ccc(C(=O)NCCC(=O)O)cn1)c1ccc(-c2ccc(C(F)(F)F)cc2)nc1 (racemic) [Example 1.29, (+/−)-3-(6-(3-methyl-1-(6-(4-(trifluoromethyl)phenyl)pyridin-3-yl)butylamino)nicotinamido)propanoic acid] |
| 120 | CC(C)CC(Nc1cnc(C(=O)NCCC(=O)O)cn1)c1ccc(-c2ccc(C(F)(F)F)cc2)cc1 (single isomer, unassigned; isomer 2) [Example 1.18, 3-(5-(3-methyl-1-(4′-(trifluoromethyl)biphenyl-4-yl)butylamino)pyrazine-2-carboxamido)propanoic acid, Isomer 2] |
